Source: ChEMBL document CHEMBL3124789, “4,5-Dihydro-1H-pyrazolo[3,4-d]pyrimidine containing phenothiazines as antitubercular agents” (Bioorg Med Chem Lett, 2014)
Values after ≈ are worked out from the molar mass of the structure shown.

Tests used:
[1] = Selectivity index, ratio of IC50 for African green monkey Vero cells to MIC for Mycobacterium tuberculosis H37Rv; assay type: toxicity, cell-based; settings: read-out: Selectivity Index
[2] = test system: Mycobacterium tuberculosis; assay: Antitubercular activity against Mycobacterium tuberculosis H37Rv assessed as growth inhibition at 6.25 ug/ml after 4 days by microplate alamar blue assay; assay type: functional; settings: 96 h
[3] = test system: Mycobacterium tuberculosis; assay: Antitubercular activity against Mycobacterium tuberculosis H37Rv assessed as growth inhibition by 2-fold dilution assay; assay type: functional
Vero = assay: Cytotoxicity against African green monkey Vero cells; assay type: cell-based; settings: Chlorocebus sabaeus

Cc1nn(-c2ccc3c(c2)Nc2ccccc2S3)c2c1C(c1ccc([N+](=O)[O-])cc1)NC(N)=N2 (centres undefined)
selectivity ratio [1]: 5.2 | inhibition at 6.25 µg/mL [2]: 95% | MIC [3]: 1.73 mg/L (≈ 3.68 µM) | IC50 (Vero): 9.1 mg/L (≈ 19.4 µM)

Cc1nn(-c2ccc3c(c2)Nc2ccccc2S3)c2c1C(c1cccc(O)c1)NC(N)=N2 (centres undefined)
inhibition at 6.25 µg/mL [2]: 57%

COc1ccc(C2NC(N)=Nc3c2c(C)nn3-c2ccc3c(c2)Nc2ccccc2S3)cc1 (centres undefined)
inhibition at 6.25 µg/mL [2]: 42%

Cc1nn(-c2ccc3c(c2)Nc2ccccc2S3)c2c1C(c1ccc(O)cc1)NC(N)=N2 (centres undefined)
inhibition at 6.25 µg/mL [2]: 67%

Cc1nn(-c2ccc3c(c2)Nc2ccccc2S3)c2c1C(c1cccc(Cl)c1)NC(N)=N2 (centres undefined)
inhibition at 6.25 µg/mL [2]: 56%

Cc1nn(-c2ccc3c(c2)Nc2ccccc2S3)c2c1C(c1ccccc1[N+](=O)[O-])NC(N)=N2 (centres undefined)
selectivity ratio [1]: 5.8 | inhibition at 6.25 µg/mL [2]: 94% | MIC [3]: 1.73 mg/L (≈ 3.68 µM) | IC50 (Vero): > 10 mg/L

Cc1nn(-c2ccc3c(c2)Nc2ccccc2S3)c2c1C(c1ccc(Cl)cc1)NC(N)=N2 (centres undefined)
selectivity ratio [1]: > 500 | inhibition at 6.25 µg/mL [2]: 100% | MIC [3]: 0.02 mg/L (≈ 0.0436 µM) | IC50 (Vero): > 10 mg/L

Cc1nn(-c2ccc3c(c2)Nc2ccccc2S3)c2c1C(c1cccc([N+](=O)[O-])c1)NC(N)=N2 (centres undefined)
inhibition at 6.25 µg/mL [2]: 73%

Cc1nn(-c2ccc3c(c2)Nc2ccccc2S3)c2c1C(c1ccccc1)NC(N)=N2 (centres undefined)
inhibition at 6.25 µg/mL [2]: 78%

Cc1nn(-c2ccc3c(c2)Nc2ccccc2S3)c2c1C(c1ccccc1Cl)NC(N)=N2 (centres undefined)
selectivity ratio [1]: 5.8 | inhibition at 6.25 µg/mL [2]: 95% | MIC [3]: 1.73 mg/L (≈ 3.77 µM) | IC50 (Vero): > 10 mg/L

Cc1nn(-c2ccc3c(c2)Nc2ccccc2S3)c2c1C(c1ccccc1O)NC(N)=N2 (centres undefined)
selectivity ratio [1]: 3.5 | inhibition at 6.25 µg/mL [2]: 92% | MIC [3]: 2.23 mg/L (≈ 5.06 µM) | IC50 (Vero): 7.8 mg/L (≈ 17.7 µM)

NNC(=O)c1ccncc1 [ISONIAZID]
selectivity ratio [1]: > 40000 | MIC [3]: 0.03 mg/L (≈ 0.219 µM) | IC50 (Vero): > 1000 mg/L
